“Also recorded” adds a separate entry of the source. Where two headings read alike, the source gives them in different places.
How the values were obtained:
[1] = test system: NO production in RAW cells; experiment: Inhibition of NO production in RAW cells stimulated with interferon-γ; format: cell-based, mouse; conditions: for IC50: read-out: IC50 (nM), NO production in RAW cells
[2] = test system: MCF-7 mouse breast cancer cell lines; conditions: Honda et al., 2003; cited from earlier work
[3] = test system: NO production in primary mouse macrophages; conditions: cited from earlier work; for IC50: Table 1, stimulated with interferon-γ, compounds racemic
[4] = test system: HO-1; experiment: Induction of HO-1 in RAW cells (Western blot); format: cell-based, mouse; conditions: FIG. 9; 30-300 nM, 24 hours
[5] = test system: heme oxygenase-1; experiment: Induction of heme oxygenase-1 in liver of CD-1 mice after gavage; format: in vivo; conditions: FIG. 3; CD-1 mice, gavage in DMSO, livers after 6 h
Protocol: FIG. 3. […] CD-1 mice (2 per group) were gavaged with TBEs or CDDO-Im in DMSO. After 6 h, livers were harvested and homogenized. Lysates were separated by SDS-PAGE, probed with HO-1 antibodies, and developed by ECL.
FIG. 11. […] Male CD-1 mice (3 per group) were gavaged with 1 μmol TBEs, CDDO or CDDO-Im in DMSO. Six hours later, livers were harvested and homogenized. Lysates were separated by SDS-PAGE, probed with HO-1 antibodies, and developed by ECL.
CD-1 mice (2 per group) were gavaged with TBEs or CDDO-Im in DMSO. After 6 h, livers were harvested and homogenized. Lysates were separated by SDS-PAGE, probed with HO-1 antibodies, and developed by ECL.

[6] = test system: iNOS; experiment: Inhibition of iNOS induction in RAW cells stimulated with IFN-γ (Western blot); format: cell-based, mouse; conditions: FIG. 10; 30-300 nM, IFNγ 10 ng/ml, 24 hours
[7] = test system: NO production in RAW cells; conditions: Honda et al., 2000, 2002; cited from earlier work
[8] = Mus musculus, Table 6, optically active TBE-31 and 34, stimulated with interferon-7
[9] = Mus musculus, Table 5, C-8a functionalized TBE-9 analogs, stimulated with interferon-γ

CC1(C)C(=O)C(C#N)=CC2(C)C3=CC(=O)C(C#N)=CC3(C#C[Si](C)(C)C)CCC12 (single isomer, unassigned; (-)) [(−)-TBE-34]
IC50 ([1]; Table 6, optically active TBE-31 and 34, stimulated with interferon-7): 3 nM

C#C[C@@]12C=C(C#N)C(=O)C=C1[C@@]1(C)C=C(C#N)C(=O)C(C)(C)[C@H]1CC2 [(+)-TBE-31, (+)-(4bS,8aS,10aR)-10a-ethynyl-4b,8,8-trimethyl-3,7-dioxo-3,4b,7,8,8a,9,10,10a-octahydrophenanthrene-2,6-dicarbonitrile]
IC50 [1, 8]: 1 nM

CC1(C)C(=O)C(C#N)=C[C@]2(C)C3=CC(=O)C(C#N)=C[C@]3(C)CC[C@@H]12 [(−)-TBE-9]
Activity against MCF-7 mouse breast cancer cell lines [2]: active

C#C[C@]12C=C(C#N)C(=O)C=C1[C@@]1(C)C=C(C#N)C(=O)C(C)(C)[C@@H]1CC2 [(−)-TBE-31]
IC50 [1, 8]: 3 nM

CC1(C)CC[C@]2(C(=O)O)CC[C@]3(C)[C@H](C(=O)C=C4[C@@]5(C)C=C(C#N)C(=O)C(C)(C)[C@@H]5CC[C@]43C)[C@@H]2C1 [CDDO, 2-cyano-3,12-dioxooleana-1,9(11)-dien-28-oic acid, reference compound]
IC50 [3]: 0.5 nM
IC50 ([1]; Table 4, C-8a functionalized TBE-10 analogs, stimulated with interferon-γ): 6 nM
IC50 ([1]; Table 5, C-8a functionalized TBE-9 analogs, stimulated with interferon-γ): 20 nM

CC1(C)CC[C@]2(C(=O)n3ccnc3)CC[C@]3(C)[C@H](C(=O)C=C4[C@@]5(C)C=C(C#N)C(=O)C(C)(C)[C@@H]5CC[C@]43C)[C@@H]2C1 [CDDO-Im, 1-[2-cyano-3-,12-dioxooleana-1,9(11)-dien-28-oyl]imidazole, reference compound]
Induction of HO-1 in RAW cells [4]: most potent compound amongst semi-synthetic triterpenoid analogues in this assay
Induction of heme oxygenase-1 in liver in vivo [5]: very potent triterpenoid agent for induction of heme oxygenase-1

CC1(C)CC[C@]2(C(=O)O)CC[C@]3(C)C(=CC[C@@H]4[C@@]5(C)CC[C@H](O)C(C)(C)[C@@H]5CC[C@]43C)[C@@H]2C1 [Oleanolic acid, reference compound]
IC50 [3]: > 40000 nM

CC(=O)O[C@@H]1CCC=C2[C@@]3(C)C=C(C#N)C(=O)C(C)(C)[C@@H]3CC[C@]21C [TBE-2]
IC50 [3]: 480 nM

CC(=O)O[C@@H]1CC(=O)C=C2[C@@]3(C)C=C(C#N)C(=O)C(C)(C)[C@@H]3CC[C@]21C [TBE-3]
IC50 [3]: 53 nM

CC1(C)C(=O)C(C#N)=C[C@]2(C)C3=CC(=O)C[C@@H](O)[C@]3(C)CC[C@@H]12 [TBE-4]
IC50 [3]: 75 nM

CC1(C)C(=O)C(C#N)=C[C@]2(C)C3=CC(=O)C=C[C@]3(C)CC[C@@H]12 [TBE-5]
IC50 [3]: 61 nM

CC1(C)C(=O)C(C#N)=CC2(C)C3=CC(=O)C(C#N)=CC3(C#C[Si](C)(C)C)CCC12 (stereo not shown) [TBE-34]
Induction of HO-1 in RAW cells [4]: nearly equivalent in potency to TBE-31
Inhibition of induction of iNOS in RAW cells stimulated with IFNγ [6]: nearly equivalent in potency to TBE-31; also recorded: nearly equivalent in potency to both compounds
Potency for inhibition of NO production in RAW cells (in words) [1]: nearly equivalent potency to that of TBE-31
IC50 ([1]; Mus musculus): 3 nM

CC#CC12C=C(C#N)C(=O)C=C1C1(C)C=C(C#N)C(=O)C(C)(C)C1CC2 (stereo not shown) [TBE-35]
IC50 [1, 9]: 5 nM

CCC#CC12C=C(C#N)C(=O)C=C1C1(C)C=C(C#N)C(=O)C(C)(C)C1CC2 (stereo not shown) [TBE-36]
IC50 [1, 9]: 20 nM

CC1(C)C(=O)C(C#N)=CC2(C)C3=CC(=O)C(C#N)=CC3(C#CC#N)CCC12 (stereo not shown) [TBE-38]
IC50 [1, 9]: 4 nM

C#CC#CC12C=C(C#N)C(=O)C=C1C1(C)C=C(C#N)C(=O)C(C)(C)C1CC2 (stereo not shown) [TBE-39]
IC50 [1, 9]: 3 nM
Potency for inhibition of NO production in RAW cells (in words) ([1]; RAW cells, interferon-γ): nearly equivalent potency to that of TBE-31

COC(=O)[C@]12CCC(C)(C)C[C@H]1C1C(=O)C=C3[C@@]4(C)C=C(C(=O)O)C(=O)C(C)(C)[C@@H]4CC[C@@]3(C)[C@]1(C)CC2 (stereo partly shown) [TP-190, reference compound]
Inhibition of NO production in mouse macrophages (in words) ([3]; Honda et al., 2000, 2002): potent inhibitors of NO production
Inhibition of NO production in RAW cells (in words) [7]: potent inhibitors of NO production

CC1(C)CC[C@]2(C#N)CC[C@]3(C)[C@H](C(=O)C=C4[C@@]5(C)C=C(C#N)C(=O)C(C)(C)[C@@H]5CC[C@]43C)[C@@H]2C1 [TP-225, reference compound]
IC50 [1, 9]: 1 nM

C[C@]12CCC(=O)C=C1CC[C@@H]1[C@@H]2[C@@H](O)C[C@@]2(C)[C@H]1CC[C@]2(O)C(=O)CO [hydrocortisone, reference compound]
IC50 [3]: 10 nM
IC50 ([1]; Mus musculus, Table 4, C-8a functionalized TBE-10 analogs, stimulated with interferon-γ): 61 nM

— US8067394B2, “Synthesis and biological activities of new tricyclic-bis-enones (TBEs)” (Trustees of Dartmouth College, priority 2006, dated 2011)
